Laboratory results taken from patent US4459241A, “Compounds containing quaternary ammonium and methylenephosphonic acid groups” (The Dow Chemical Company, priority 1983, dated 1984).

Assay: scale inhibition test with respect to calcium carbonate (soluble calcium retained, 24 h at 80° C.)
Format: physicochemical
Conditions: 10 ppm based on active acid, 0.02M CaCl2 + 0.04M sodium bicarbonate/0.96M sodium chloride, 24-hour period, blank 12%
Method: To these solutions is added the candidate inhibitor in various concentrations. Fifty-ml samples of a 0.04M sodium bicarbonate/0.96M sodium chloride solution are then added with stirring. A total hardness determination is made on the mixture by adding excess standard EDTA to a sample and back titrating with standard Mg^++ solution in the presence of Eriochrome Black T indicator. The samples are placed in an 80° C. oven and 10-ml samples taken periodically from each bottle, filtered through a millipore filter, and the total hardness of the filtrates determined by titration. A blank with no inhibitor is run in an identical manner. The relative inhibition effects are shown by determining the amount of hardness (as soluble calcium) before and after heating for a 24-hour period. The amount of soluble calcium as a percent of that originally present is indicated as % inhibition.
All products and comparative runs were made using a concentration of 10 ppm based on active acid.

C[N+](C)(C)CC(O)CN(CCN(CP(=O)(O)O)CP(=O)(O)O)CP(=O)(O)O (stereo not shown) [Product Ex. 1]
% Inhibition (amount of soluble calcium as a percent of that originally present): 41.8%
